Test results from US7928096B2, “Polydiazeniumdiolated cyclic polyamines with polyphasic nitric oxide release and related compounds, compositions comprising same and methods of using same” (The United States of America, as represented by the …, priority 2002, dated 2011).
Like-named read-outs stand apart in the source and are kept apart here.

Key:
[1] = Total moles of NO released by chemiluminescence; type: physicochemical; details: for Ideal moles of NO released: theoretical (ideal) amount; for Moles of NO released: chemiluminescence
Method: (§1) The total moles of NO released were determined by chemiluminescence as previously described in Hrabie et al. (New Nitric Oxide Releasing Zwitterions Derived from Polyamines. J. Org. Chem., 1993, 58, 1472-1476). The NO release rates for the compounds prepared in Example 1 and Example 2 were determined by UV spectrophotometry by adding a stock solution of the compound in 0.01 M NaOH to pH 7.4 phosphate buffer (0.1 M) contained in a standard UV cell to generate final solutions at concentrations in the range of 50 to 100 μM. The rate of NO release was determined by the decrease in 250-252 nm absorbance over time at 37° C. as previously described by Keefer et al. (“NONOates” (1-Substituted Diazen-1-ium-1,2-diolates) as Nitric Oxide Donors: Convenient Nitric Oxide Dosage Forms. Methods in Enzymology, 1996, 268, 281-293). The results of the NO release of piperazine bisdiazeniumdiolate as discussed in Hrabie et al. (Organic Preparations and Procedures International, 1999, 31(2), 189-192) are included as a comparative example.

[2] = comparative example from Hrabie et al. 1999; cited from earlier work
[3] = NO release monitored by chemiluminescence of effluent gas stream treated with ozone; details: pH 7.4 phosphate buffer at 37° C.
Method: The diazeniumdiolated compound described in Example 4 was dissolved in pH 7.4 phosphate buffer at 37° C., and the release of NO was monitored by detection of the chemiluminescence generated by treatment of the effluent gas steam with ozone.
The diazeniumdiolated compound described in Example 5 was dissolved in pH 7.4 phosphate buffer at 37° C., and the release of NO was monitored by detection of the chemiluminescence generated by treatment of the effluent gas steam with ozone.
The diazeniumdiolated compound described in Example 6 was dissolved in pH 7.4 phosphate buffer at 37° C., and the release of NO was monitored by detection of the chemiluminescence generated by treatment of the effluent gas steam with ozone.
The diazeniumdiolated compound described in Example 7 was dissolved in pH 7.4 phosphate buffer at 37° C., and the release of NO was monitored by detection of the chemiluminescence generated by treatment of the effluent gas steam with ozone.
The diazeniumdiolated compound described in Example 9 was dissolved in pH 7.4 phosphate buffer at 37° C., and the release of NO was monitored by detection of the chemiluminescence generated by treatment of the effluent gas steam with ozone.

[4] = NO release rate by UV spectrophotometry (decrease in 250-252 nm absorbance); type: physicochemical; details: phosphate buffer, pH 7.4, pH 7.4 phosphate buffer (0.1 M), 37° C., 50 to 100 μM
Text: The invention provides a cyclic polyamine compound comprising at least three amino groups, wherein at least two of the amino groups are covalently bound to a nitrogen oxide-releasing group of the formula N2O2M, in which M is a pharmaceutically acceptable cation. The invention also provides a compound that has a polyphasic release of nitric oxide, wherein any subsequent release of nitric oxide has a rate that is at least about 3 times smaller than an initial rate of nitric oxide release. The rate of NO release can be determined by any suitable method. For example, the rate of NO release can be measured by the decrease in 250-252 nm absorbance over time at 37° C. as previously described by Keefer et al., “NONOates” (1-Substituted Diazen-1-ium-1,2-diolates) as Nitric Oxide Donors: Convenient Nitric Oxide Dosage Forms. Methods in Enzymology, 1996, 268, 281-293.
as §1

[5] = read-out: t1/2 of initial phase
[6] = read-out: t1/2 of second phase (converted)

Row | Compound | Ideal moles of NO released [1] [mol] | Moles of NO released [2] [mol] | biphasic release of NO, first rate of release [3] [min] | biphasic release of NO, second rate of release [3] [min] | Moles of NO released [1] [mol] | half-life [4, 5] [h] | half-life [4, 6] [h] | melting point
1 | piperazine bisdiazeniumdiolate [reference compound] | 4 | 4.3 | – | – | – | – | – | –
2 | O=C1C(=O)N2CCCN([N+]([O-])=N[O-])CCN([N+]([O-])=N[O-])CCCN1CC2.[Na+].[Na+] [Example 9, 1,4-bis(diazeniumdiolated)-1,5,8,12-tetraazabicyclo[10.2.2.]hexadecane-13,14-dione, disodium salt] | – | – | 1.1 | 161 | – | – | – | –
3 | [Na+].[Na+].[O-]/N=[N+](\[O-])N1CCCN(/[N+]([O-])=N/[O-])CCNCCCNCC1 [Example 1, 1,4,8,11-tetraazacyclotetradecane-1,11-bisdiazeniumdiolate] | 4 | – | – | – | 3.3 | 0.0283 | 8.9 | 181 to 182 °C
4 | O=NN([O-])N1CCN2CCN(CCN(N([O-])N=O)CC1)C(=O)C2=O.[Na+].[Na+] [Example 6, 1,4-bis(diazeniumdiolated)-1,4,7,10-tetraazabicyclo[8.2.2]tetradecane-11,12-dione, disodium salt] | – | – | 1.0 | 41.5 | – | – | – | –
5 | [Na+].[Na+].[O-]/N=[N+](\[O-])N1CCNCCNCCN(/[N+]([O-])=N/[O-])CC1 [Example 2, 1,4,7,10-tetraazacyclododecane-1,4-bisdiazeniumdiolate] | 4 | – | – | – | 3.3 | 0.0283 | 8.8 | 183 to 185 °C (dec.)
6 | CCOC(=O)N1CCN(/[N+]([O-])=N/[O-])CCN(C(=O)OCC)CCN(/[N+]([O-])=N/[O-])CC1.[Na+].[Na+] [Example 7, 1,7-diazeniumdiolated-4,10-bis(ethoxycarbonyl)-1,4,7,10-tetraazacyclododecane, disodium salt] | – | – | 0.36 | 60.9 | – | – | – | –
